Columns and labels:
[1] = tested on: Swiss albino mice; test: Serum triglyceride and total cholesterol lowering activity in Swiss albino mice; assay type: in vivo; settings: male Swiss albino mice, oral, 10 mg/kg/day for 6 days, 1 hour after dosing on 6th day
Method: • i) Serum triglyceride and total cholesterol lowering activity in Swiss albino mice:
Male Swiss albino mice (SAM) were bred in Zydus animal house. All these animals were maintained under 12 hour light and dark cycle at 25±1° C. Animals were given standard laboratory chow (NIN, Hyderabad, India) and water ad libitum. SAM of 20-30 g body weight range was used. The protocol approved by Institutional Animal Ethics Committee is being used.
The test compounds were administered orally to Swiss albino mice at 0.001 to 50 mg/kg/day dose for 6 days. The compound was administered after suspending it in 0.25% CMC or dissolving it in water, when compound is water-soluble. Control mice were treated with vehicle (0.25% of Carboxymethylcellulose; dose 10 ml/kg).
The blood samples were collected on 0th day and in fed state 1 hour after drug administration on 6th day of the treatment. The blood was collected in non heparinised capillary and the serum was analyzed for triglyceride and total cholesterol (Wieland, O. Methods of Enzymatic analysis. Bergermeyer, H., O., Ed., 1963. 211-214; Trinder, P. Ann. Clin. Biochem. 1969. 6: 24-27). Measurement of serum triglyceride and total cholesterol was done using commercial kits (Zydus-Cadila, Pathline, Ahmedabad, India).
Percentage reduction in triglycerides/total cholesterol were calculated according to the formula: [formula]
OC=Zero day control group value OT=Zero day treated group value TC=Test day control group TT=Test day treated group

[2] = tested on: Hamster of Syrian golden stain; test: Serum triglyceride and total cholesterol lowering activity in Hamster of Syrian golden strain on HF-HC diet; assay type: in vivo; settings: hamsters on HF-HC diet, po, 3 mg/kg/day for 15 days
Source text: ii) Surem triglyceride and total cholesterol lowering activity in Hamster of Syrian golden stain:
Male and Female Hamster of Syrian golden stain were bred in Zydus animal house. All these animals were maintained under 12-hour light and dark cycle at 22±3 degree C. The protocol approved by Institutional Animal Ethics Committee is being used. Two groups of animals were put on HF-HC (High fat and high cholesterol) diet for 14 days. On day 14 […] one group of animals of were put on normal diet for two weeks.
One group of animals on HF-HC diet were treated (po) with compounds of the present invention, at 0.001 to 50 mg/kg daily for 15 days while the other group received the vehicle. After 15 days blood samples. were be collected in non heparinized capillary from animals for determination of total cholesterol (TC), triglyceride (TG) (Wieland, O. Methods of Enzymatic analysis. Bergermeyer, H., O., Ed., 1963. 211-214; Trinder, P. Ann. Clin. Biochem. 1969. 6: 24-27). Measurement of serum triglyceride and total cholesterol was done using commercial kits (Pointe Scientific. Inc. USA.)
Percentage reduction in triglycerides/total cholesterol were calculated according to the formula:
• Percentage reduction (%)=(TT−TC)/TC*100
TC=Test day control group TT=Test day treated group.

Compound	% Triglyceride lowering [1] [%]	% Triglyceride lowering [2] [%]
CC1(C(=O)O)OCC(CCCCOc2ccc(Cc3ccccc3)cc2)CO1 (stereo not shown) [Example 38, 5-[4-(4-Benzyl-phenoxy)-butyl]-2-methyl-[1,3]dioxane-2-carboxylic acid]	32	
CC1(C(=O)O)OCC(CCCCc2ccc(OCc3ccccc3)cc2)CO1 (stereo not shown) [Example 49, 5-[4-(4-Benzyloxy-phenyl)-butyl]-2-methyl-[1,3]dioxane-2-carboxylic acid]	26	
CC1(C(=O)O)OCC(CCCCc2ccc(OS(C)(=O)=O)cc2)CO1 (stereo not shown) [Example 50, 5-[4-(4-Methanesulfonyloxy-phenyl)-butyl]-2-methyl-[1,3]dioxane-2-carboxylic acid]	32	45
